Measurements from patent US20230071441A1, “CIGARETTE FILTER CONTAINING NATURAL PLANT MATERIAL, PREPARATION METHOD THEREOF, AND CIGARETTE INCLUDING THE FILTER” (KT & G Corporation, priority 2019, published 2023).

Tests used:
[1] = Methyl mercaptan reducing ability (deodorizing activity), headspace GC/MS; conditions: methyl mercaptan 1 μg/ml 2 ml, pH 7.5, 42 degrees C. 6 minutes; powders/granules 10 mg in 2 ml water; oil/flavoring liquid 2 ml; single ingredient 3 ppm
Method: Using the cigarette prepared in Example 24-1, an experiment was conducted to identify reducing ability for the methyl mercaptan as a representative halitosis ingredient in the cigarette smoke.
Pine needle and rosemary based powders, granules, oils, and flavoring liquid, as well as pine needle based fragrance carrying ingredients, that is, alpha-pinene, bonyl acetate, and rosemary based fragrance carrying ingredients, that is, 1,8-cineol, and borneol were added to the cigarette filter. Thus, a cigarette including the cigarette filter was prepared to identify methyl mercaptan reducing ability.
A content of methyl mercaptan as used was 1 ppm [1 μg/ml] 2 ml. When the pine needle and rosemary based powders and granules were used, 10 mg of the sample was extracted with 2 ml of water and was used. In one example, when using the oil and flavoring liquid based on pine needle and rosemary, 2 ml thereof was used. As for a single ingredient, 3 ppm (3 μg/ml) of the sample was extracted with 2 ml of water and was used.
The analysis experiment of reducing ability for methyl mercaptan included a pretreatment process of the sample, and the analysis process under the headspace sampler condition and the GC/MS-SIM condition. First, 10 mg of pine needle and rosemary based powders and granules sample were put into a 20 ml vial, which was immersed in 2 ml of water for 1 hour. Next, 2 ml of 0.2 M potassium phosphate was added thereto and the pH was adjusted to 7.5. Thereafter, 2 ml of methyl mercaptan (1 μg/ml) was added thereto and the vial was sealed, followed by stirring with a Vortex mixer for 5 seconds. In the headspace sampler, reaction occurred at 42 degrees C. for 6 minutes, and methyl mercaptan isolated into headspace was directly analyzed via GC/MS. An area of methyl mercaptan obtained as a result of the GC/MS analysis was compared with that of the control to determine the reduction percentage.
Deodorizing Activity (DA, %)=[C−S]/C×100 • C: methyl mercaptan area of control • S: Methyl mercaptan area of test group • See Tokita, F. et al. Nippon Nogeikagaku Kaishi 58(6), p 585 to 589 [1984].
The GC/MS instrument based analysis conditions were set as follows. Headspace Sampler conditions were set as follows: culture temperature: 42 degrees C., culture duration: 6 minutes, and transfer liner temperature: 100 degrees C.
The GC/MS-SIM conditions were set as follows: DB-624(60 m, 0.25 mm, 0.25 um) column was used; Oven Temp: 35 degrees C. for 10 minutes; post run: 250 degrees C. for 30 minutes. Injector/Interface Temp was 150 degrees C. or 220 degrees C. For injection, Split 10:1, flow rate 1 ml/min, methyl mercaptan ion (m/z): quantitative ion 47; and qualitative ion 48 and 45. […]

[2] = system: halitosis ingredient (Hydrogen sulfide) derived from oral microbes; assay: Sedimentation of halitosis ingredient by absorbance analysis (FeS, 700 nm) in cultured saliva; format: cell-based, oral bacteria in saliva; conditions: cultured saliva 0.5 ml, FeSO4, 24 hours 37 degrees C. anaerobic, absorbance 700 nm
Method: Using the cigarette prepared in Example 24-1, the sedimentation of halitosis ingredient thereof was measured via absorbance analysis. To this end, an experiment was conducted to identify the reducing ability for the halitosis ingredient derived from oral microbes when smoking the cigarette with the filter having the pine needle and rosemary based substances added thereto.
The experiment for measuring the sedimentation of halitosis ingredients was as follows. Hydrogen sulfide in a volatile sulfur compound as mouth odor ingredient generated when cultivating oral bacteria in saliva was combined with iron in a liquid state such that iron sulfide (FeS) in a form of a black precipitate occurred. Thus, the sedimentation of halitosis ingredient was analyzed. First, whole saliva was incubated for 48 hours at 37 degrees C. under anaerobic conditions. Then, […] of oil based test substance or 20 μl of a single ingredient was added to 0.5 ml cultured saliva. 0.05 g surfactant was added thereto. The salvia was mixed with 0.05 g ferrous sulfate II (FeSO4). The mixture was incubated for 24 hours at 37 degrees C. under anaerobic conditions. Thus, absorbance of the culture was measured at 700 nm to determine sedimentation of halitosis ingredients.
However, there was a limit in the detection in the direct analysis of cigarette due to the difference in smoking amount.

CC1(C)C2CCC1(C)C(O)C2 (centres unmarked) [Borneol]
Methyl mercaptan Reducing ability (%) [1]: 30.7%
Halitosis ingredient (Hydrogen sulfide) Reducing ability (%) [2]: 45.0%

CC12CCC(CC1)C(C)(C)O2 [1,8-Cineol]
Methyl mercaptan Reducing ability (%) [1]: 51.9%
Halitosis ingredient (Hydrogen sulfide) Reducing ability (%) [2]: 37.0%

CC(=O)O[C@@H]1C[C@@H]2CC[C@@]1(C)C2(C)C [Bonyl acetate]
Methyl mercaptan Reducing ability (%) [1]: 41.7%
Halitosis ingredient (Hydrogen sulfide) Reducing ability (%) [2]: 36.0%

CC1=CCC2CC1C2(C)C (stereo not drawn) [α-Pinene]
Methyl mercaptan Reducing ability (%) [1]: 54.7%
Halitosis ingredient (Hydrogen sulfide) Reducing ability (%) [2]: 50.0%
